# Earlier results as cited in patent US20110105488A1, “SUBSTITUTED PYRROLIDINE AND PIPERIDINE COMPOUNDS, DERIVATIVES THEREOF, AND METHODS FOR TREATING PAIN” (Chlorion Pharma, Inc., priority 2008, published 2011).
# Legend:
# patients = settings: human, in vivo
# [1] = test system: patients with post-herpetic neuralgia
# clinical trial subjects = settings: review of multiple clinical studies
smiles,measurement,setting,value
NC(=O)N1c2ccccc2C=Cc2ccccc21 [carbamazepine],adverse effects evoked,patients,various sensory deficits
same,patients with rash and leucopenia,patients,~10%
NCC1(CC(=O)O)CCCCC1 [gabapentin],mean endpoint pain score,"[1]; 8-week trials, mean baseline 6.3",4.2
same,decrease in pain,"[1]; two placebo-controlled, parallel-group trials of 8-weeks duration",~33%
CC(C)C[C@H](CN)CC(=O)O [pregabalin],adverse effects evoked,clinical trial subjects,"significant somnolence, vertigo, and headache"
